{"source": "ChEMBL document CHEMBL6109121", "about": "“Discovery of Novel Sulfonylurea NLRP3 Inflammasome Inhibitor for the Treatment of Multiple Inflammatory Diseases” (J Med Chem, 2025)", "key": {"[1]": {"experiment": "Half-life in male ICR (CD-1) mouse at 20 mg/kg, po by LC-MS/MS analysis", "assay_type": "ADME, organism-based", "conditions": "in vivo"}, "Mus musculus [2]": {"tested_on": "Mus musculus", "experiment": "(§1) Anti-colitis activity in DSS-induced acute ulcerative colitis male C57BL/6J mouse model assessed as reduction in depletion of goblet cells in colon at 0.2 to 5 mg/kg, po preadministered with DSS for 7 days followed by 3 days of drinking water and measured after 10 days of compound administration by H and E staining based analysis", "assay_type": "functional, organism-based", "conditions": "dose 0.2-5 mg/kg, time 10.0 day"}, "[3]": {"experiment": "Cytotoxicity against male C57BL/6J mouse BMDM cells", "assay_type": "functional"}, "[4]": {"experiment": "Oral bioavailability in male ICR (CD-1) mouse at 20 mg/kg by LC-MS/MS analysis", "assay_type": "ADME, organism-based", "conditions": "in vivo"}, "Mus musculus [5]": {"tested_on": "Mus musculus", "experiment": "Effect on HDL-C level in serum of HFD-fed STZ-induced diabetic kidney disease male C57BL/6J mouse model at 20 mg/kg fed with high fat diet for 4 weeks followed by STZ administration for 5 days and measured 6 weeks post compound administration via gavage", "assay_type": "functional, organism-based"}, "BMDM [6]": {"tested_on": "BMDM", "experiment": "Inhibition of NLRC4 inflammasome activation in LPS/flagellin-stimulated male C57BL/6J mouse BMDM cells assessed as inhibition of IL-1beta secretion pretreated with LPS followed by compound addition for 4 hrs and measured after 2 hrs of Salmonella typhimurium flagellin addition by ELISA", "assay_type": "cell-based", "conditions": "time 6.0 hrs"}, "Mus musculus [7]": {"tested_on": "Mus musculus", "experiment": "as §1, with “disruption” for “depletion”, “mucosal barrier” for “goblet cells”", "assay_type": "functional, organism-based", "conditions": "dose 0.2-5 mg/kg, time 10.0 day"}, "BMDM [8]": {"tested_on": "BMDM", "experiment": "Inhibition of AIM2 inflammasome activation in LPS/Poly dA:dT-stimulated male C57BL/6J mouse BMDM cells assessed as inhibition of IL-1beta secretion pretreated with LPS followed by compound addition for 4 hrs and measured after 4 hrs of Poly dA:dT addition by ELISA", "assay_type": "cell-based", "conditions": "time 8.0 hrs"}, "Mus musculus [9]": {"tested_on": "Mus musculus", "experiment": "Anti-colitis activity in DSS-induced acute ulcerative colitis male C57BL/6J mouse model assessed as increase in colon length at 0.2 to 5 mg/kg, po preadministered with DSS for 7 days followed by 3 days of drinking water and measured after 10 days of compound administration", "assay_type": "functional, organism-based", "conditions": "dose 0.2-5 mg/kg, time 10.0 day"}, "Mus musculus [10]": {"tested_on": "Mus musculus", "experiment": "Anti-colitis activity in DSS-induced acute ulcerative colitis male C57BL/6J mouse model assessed as improvement in stool consistency at 0.2 to 5 mg/kg, po preadministered with DSS for 7 days followed by 3 days of drinking water and measured after 10 days of compound administration", "assay_type": "functional, organism-based", "conditions": "dose 0.2-5 mg/kg, time 10.0 day"}, "Mus musculus [11]": {"tested_on": "Mus musculus", "experiment": "Antidiabetic activity in HFD-fed STZ-induced diabetic kidney disease male C57BL/6J mouse model assessed as reduction in tubular basement membrane thickening in kidney at 20 mg/kg fed with high fat diet for 4 weeks followed by STZ administration for 5 days and measured 6 weeks post compound administration via gavage by histological analysis", "assay_type": "functional, organism-based"}, "Mus musculus [12]": {"tested_on": "Mus musculus", "experiment": "Effect on TNF-alpha level in serum of DSS-induced acute ulcerative colitis male C57BL/6J mouse model at 0.2 to 5 mg/kg, po preadministered with DSS for 7 days followed by 3 days of drinking water and measured after 10 days of compound administration by ELISA", "assay_type": "functional, organism-based", "conditions": "dose 0.2-5 mg/kg, time 10.0 day"}, "[13]": {"experiment": "Tmax in male ICR (CD-1) mouse at 20 mg/kg, po by LC-MS/MS analysis", "assay_type": "ADME, organism-based", "conditions": "in vivo"}, "Mus musculus [14]": {"tested_on": "Mus musculus", "experiment": "Anti-colitis activity in DSS-induced acute ulcerative colitis male C57BL/6J mouse model assessed as reduction in fecal bleeding at 0.2 to 5 mg/kg, po preadministered with DSS for 7 days followed by 3 days of drinking water and measured after 10 days of compound administration", "assay_type": "functional, organism-based", "conditions": "dose 0.2-5 mg/kg, time 10.0 day"}, "[15]": {"experiment": "Half-life in male ICR (CD-1) mouse at 5 mg/kg, iv by LC-MS/MS analysis", "assay_type": "ADME, organism-based", "conditions": "in vivo"}}, "note": "Active and inactive are the calls of the source. No cut-off for these calls is given here.", "data": [{"smiles": "CN1CCC(N(C)S(=O)(=O)NC(=O)Nc2c3c(cc4c2CCC4)CCC3)CC1", "values": [{"measurement": "half-life", "setting": "[1]", "result": 2.7, "unit": "h"}, {"measurement": "Activity", "setting": "Mus musculus [2]", "result": "Active"}, {"measurement": "CC50", "setting": "[3]", "result": "> 100", "unit": "µM"}, {"measurement": "bioavailability", "setting": "[4]", "result": 99.6, "unit": "%"}, {"measurement": "Activity", "setting": "Mus musculus [5]", "result": "inactive"}, {"measurement": "inhibition", "setting": "BMDM [6]", "result": "inactive"}, {"measurement": "Activity", "setting": "Mus musculus [7]", "result": "Active"}, {"measurement": "inhibition", "setting": "BMDM [8]", "result": "inactive"}, {"measurement": "Activity", "setting": "Mus musculus [9]", "result": "inactive"}, {"measurement": "Activity", "setting": "Mus musculus [10]", "result": "Active"}, {"measurement": "Activity", "setting": "Mus musculus [11]", "result": "Active"}, {"measurement": "Activity", "setting": "Mus musculus [12]", "result": "inactive"}, {"measurement": "Tmax", "setting": "[13]", "result": 0.33, "unit": "h"}, {"measurement": "Activity", "setting": "Mus musculus [14]", "result": "Active"}, {"measurement": "half-life", "setting": "[15]", "result": 3.63, "unit": "h"}]}]}
